Measurements reported in patent US20250011303A1, “SMALL MOLECULE MODULATORS OF IL-17A, METHODS OF MAKING AND METHODS OF USING THEREOF” (ASCLETIS BIOSCIENCE CO., LTD, priority 2023, published 2025).

system: not listed separately; experiment: Pharmacokinetics after oral gavage in fasted SD rats; type: in vivo; settings: PO 10 mg per kilogram, plasma, 0.25-24 hours
Description: Compounds of the present application were formulated in 40% PEG400/10% solutol/2% Tween 80/48% saline (v/v/v/v), and administered via oral gavage (PO) at the dosages of 10 mg per kilogram body weight in fasted SD rats. Plasma samples were collected at 0.25, 0.5, 1, 2, 4, 8, and 24 hours post dosing. Compound concentration was determined by LC-MS and pharmacokinetics parameters were calculated by WinNonlin 8.2 using Non-Compartmental Analysis model.

AUC [ng · h/m] | SMILES
9703 | CC(C)[C@H]1C[C@@H](C(=O)N2CC(F)(F)C2)c2ccc(NC(=O)[C@@H](NC(=O)c3ccnn3C(C)C)C(C3CC3)C3CC3)cc2O1 [Compound 161]
18980 | CC(C)[C@H]1C[C@@H](C(=O)N2CC(F)(F)C2)c2ccc(NC(=O)[C@@H](NC(=O)c3ccnn3C(C)C)C3CCCCCC3)cc2O1 [Compound 204]
7840 | CC(C)n1nccc1C(=O)N[C@H](C(=O)Nc1ccc2c(c1)OC1(CCC(F)(F)CC1)CC2C(=O)N1CC(F)(F)C1)C1CCCCCC1 (some centres unmarked) [Compound 225]
6093 | CC(C)n1nccc1C(=O)N[C@H](C(=O)Nc1cc2c(cc1F)[C@H](C(=O)N1CC(F)(F)C1)C[C@H](C1CC(F)(F)C1)O2)[C@H]1CC[C@H](C)CC1 [Compound 248]

same assay, conditions: rat, plasma, 10 mg per kilogram body weight, PO 10 mg per kilogram

SMILES | bioavailability [%]
CC(C)[C@H]1C[C@@H](C(=O)N2CC(F)(F)C2)c2ccc(NC(=O)[C@@H](NC(=O)c3ccnn3C(C)C)C(C3CC3)C3CC3)cc2O1 [Compound 161] | 63.5
CC(C)[C@H]1C[C@@H](C(=O)N2CC(F)(F)C2)c2ccc(NC(=O)[C@@H](NC(=O)c3ccnn3C(C)C)C3CCCCCC3)cc2O1 [Compound 204] | 34.8
CC(C)n1nccc1C(=O)N[C@H](C(=O)Nc1ccc2c(c1)OC1(CCC(F)(F)CC1)CC2C(=O)N1CC(F)(F)C1)C1CCCCCC1 (some centres unmarked) [Compound 225] | 57.6
CC(C)n1nccc1C(=O)N[C@H](C(=O)Nc1cc2c(cc1F)[C@H](C(=O)N1CC(F)(F)C1)C[C@H](C1CC(F)(F)C1)O2)[C@H]1CC[C@H](C)CC1 [Compound 248] | 70.7

system: HEK-Blue IL-17 cells with rhIL-17A/A; experiment: HEK-Blue IL-17 cell assay (SEAP reporter, rhIL-17A/A stimulation); type: cell-based, human; settings: 20 hours incubation, absorbance at 405 nm, read-out: IC50 in HEK-Bule cell Assay
Description: • 1. The test Compounds were 3-fold serial diluted from 10 mM for 10 doses in DMSO. • 2. Prepare Reference Compounds (IL-17A-Inhibitor-1) were 3-fold serial diluted from 1 mM for 10 doses in DMSO. • 3. Prepare 1000× Positive control (1 mM IL-17A-Inhibitor-1) and 1000× vehicle control (100% DMSO).
• a) Cells were cultured as the HEK-Blue™ IL-17 technical data sheet recommended. HEK-Blue IL-17 cells were assayed in the exponential growth phase. • b) Aspirate growth medium and rinse cells twice with PBS to remove phenol red. • c) Resuspend cells in test medium to a proper concentration. • d) Only cells with viability greater than 90% were used for assays. • e) Transfer 25 nl of compound dilutions into 384-well assay plates using Echo655; • f) Seed 25 ul of HEK-Blue IL-17 cells at 8,000 cells/well into 384-well plate with rhIL-17A/A. • g) Cells were incubated for 20 hours at 37° C. under 5% CO2 atmosphere. • h) Transfer 2 ul of cells supernatant into per well of 384-well assay plates. • i) Add 20 ul of PNPP substrate. • j) Measure the Absorbance at 405 nm on Envision 2105 plate reader.
RLU signal (LUMcmpd) is calculated for each well.
% Inhibition is calculated as follow: […]
Signalave_pc: The average signal for the positive controls across the plate.
Signalave_vc: The average signal for negative controls across the plate.
Calculate IC50 and Plot effect-dose curve of cmpds:
Calculate IC50 by fitting % Inhibition values and log of compound concentrations to nonlinear regression (dose response−variable slope) with Graphpad 8.0.

SMILES | IC50 [nM]
CC(C)n1nccc1C(=O)N[C@H](C(=O)Nc1ccc2c(c1)O[C@H](C1CC(F)(F)C1)C[C@H]2C(=O)N1CC(F)(F)C1)C1CCCCCC1 [Compound 226] | 48.9
CC(C)n1nccc1C(=O)N[C@H](C(=O)Nc1ccc2c(c1)O[C@@H](C1CC(F)(F)C1)C[C@H]2C(=O)N1CC(F)(F)C1)C1CCCCCC1 [Compound 228] | 27.5

same assay, conditions: Homo sapiens, HEK-Blue, 20 h, 20 hours incubation, absorbance at 405 nm, read-out: IC50 in HEK-Bule cell Assay

SMILES | IC50 [nM]
CC(C)[C@H]1C[C@@H](C(=O)N2CC(F)(F)C2)c2ccc(NC(=O)[C@@H](NC(=O)c3ccnn3C(C)C)C(C3CC3)C3CC3)cc2O1 [Compound 161] | 43.3
CC(C)C1CC(C(=O)N2CC(F)(F)C2)c2ccc(NC(=O)[C@@H](NC(=O)OC3CC(F)(F)C3)C3CCCCCC3)cc2O1 (some centres unmarked) [Compound 194] | 564
CC(C)n1nccc1C(=O)N[C@H](C(=O)Nc1ccc2c(c1F)OC(C1CC(F)(F)C1)CC2C(=O)N1CC(F)(F)C1)C1CCCCCC1 (some centres unmarked) [Compound 195] | 131
CC(C)n1nccc1C(=O)N[C@H](C(=O)Nc1ccc2c(c1)OCCC2C(=O)N1CC(F)(F)C1)C1CCCCCC1 (some centres unmarked) [Compound 197] | 287
CC(C)n1nccc1C(=O)N[C@H](C(=O)Nc1ccc2c(c1)OCC[C@H]2C(=O)N1CC(F)(F)C1)C1CCCCCC1 [Compound 198] | 216
CC(C)n1nccc1C(=O)N[C@H](C(=O)Nc1ccc2c(c1)OC(C)(C)CC2C(=O)N1CC(F)(F)C1)C1CCCCCC1 (some centres unmarked) [Compound 200] | 200
CC(C)n1nccc1C(=O)N[C@H](C(=O)Nc1ccc2c(c1)OCCC2CC(=O)N1CC(F)(F)C(F)(F)C1)C1CCCCCC1 (some centres unmarked) [Compound 201] | 443
CC(C)n1nccc1C(=O)N[C@H](C(=O)Nc1ccc2c(c1)CCCC2C(=O)N1CC(F)(F)C(F)(F)C1)C1CCCCCC1 (some centres unmarked) [Compound 203] | 141
CC(C)[C@H]1C[C@@H](C(=O)N2CC(F)(F)C2)c2ccc(NC(=O)[C@@H](NC(=O)c3ccnn3C(C)C)C3CCCCCC3)cc2O1 [Compound 204] | 46.6
CC(C)n1nccc1C(=O)N[C@H](C(=O)Nc1ccc2c(c1)OCCC2C(=O)N1CCC(F)(F)CC1)C1CCCCCC1 (some centres unmarked) [Compound 206] | 369
CC(C)n1nccc1C(=O)N[C@H](C(=O)Nc1ccc2c(c1)SCCC2C(=O)N1CC(F)(F)C(F)(F)C1)C1CCCCCC1 (some centres unmarked) [Compound 207] | 92.9
CC(C)n1nccc1C(=O)N[C@H](C(=O)Nc1ccc2c(c1)S(=O)(=O)CCC2C(=O)N1CC(F)(F)C(F)(F)C1)C1CCCCCC1 (some centres unmarked) [Compound 208] | 290
CC(C)n1nccc1C(=O)N[C@H](C(=O)Nc1ccc2c(c1)OC(C1CCC1)CC2C(=O)N1CC(F)(F)C(F)(F)C1)C1CCCCCC1 (some centres unmarked) [Compound 210] | 251
CC(C)n1nccc1C(=O)N[C@H](C(=O)Nc1ccc2c(c1)OC(C1CCCC1)CC2C(=O)N1CC(F)(F)C(F)(F)C1)C1CCCCCC1 (some centres unmarked) [Compound 211] | 259
CC(C)n1nccc1C(=O)N[C@H](C(=O)Nc1ccc2c(c1)OC(C1CCCCC1)CC2C(=O)N1CC(F)(F)C1)C1CCCCCC1 (some centres unmarked) [Compound 212] | 213
CC(C)n1nccc1C(=O)N[C@H](C(=O)Nc1ccc2c(c1)OC(C(C)(C)C)CC2C(=O)N1CC(F)(F)C(F)(F)C1)C1CCCCCC1 (some centres unmarked) [Compound 213] | 112
Cc1nonc1C(=O)N[C@H](C(=O)Nc1ccc2c(c1)OC(C(C)C)CC2C(=O)N1CC(F)(F)C1)C1CCCCCC1 (some centres unmarked) [Compound 214] | 335
CC(C)[C@H]1C[C@@H](C(=O)N2CC(F)(F)C(F)(F)C2)c2ccc(NC(=O)[C@@H](NC(=O)c3ccnn3C(C)C)C3CCCCCC3)cc2O1 [Compound 215] | 40.7
CC(C)[C@@H]1C[C@@H](C(=O)N2CC(F)(F)C(F)(F)C2)c2ccc(NC(=O)[C@@H](NC(=O)c3ccnn3C(C)C)C3CCCCCC3)cc2O1 [Compound 217] | 199
CC(C)[C@H]1C[C@H](C(=O)N2CC(F)(F)C(F)(F)C2)c2ccc(NC(=O)[C@@H](NC(=O)c3ccnn3C(C)C)C3CCCCCC3)cc2O1 [Compound 218] | 222
CC(C)n1nccc1C(=O)N[C@H](C(=O)Nc1ccc2c(c1)CCCC2C(=O)N1CC(F)(F)C1)C1CCCCCC1 (some centres unmarked) [Compound 219] | 276
CC(C)CC1CC(C(=O)N2CC(F)(F)C2)c2ccc(NC(=O)[C@@H](NC(=O)c3ccnn3C(C)C)C3CCCCCC3)cc2O1 (some centres unmarked) [Compound 220] | 181

SMILES | IC50 [nM]
CC(C)n1nccc1C(=O)N[C@H](C(=O)Nc1ccc2c(c1)OC1(CCCCC1)CC2C(=O)N1CC(F)(F)C1)C1CCCCCC1 (some centres unmarked) [Compound 221] | 116
CC(C)n1nccc1C(=O)N[C@H](C(=O)Nc1ccc2c(c1)OC1(CCC1)CC2C(=O)N1CC(F)(F)C1)C1CCCCCC1 (some centres unmarked) [Compound 222] | 255
CC(C)n1nccc1C(=O)N[C@H](C(=O)Nc1ccc2c(c1)OC1(CCCC1)CC2C(=O)N1CC(F)(F)C1)C1CCCCCC1 (some centres unmarked) [Compound 223] | 130
CC(C)n1nccc1C(=O)N[C@H](C(=O)Nc1ccc2c(c1)OC1(CCC(C)(C)CC1)CC2C(=O)N1CC(F)(F)C1)C1CCCCCC1 (some centres unmarked) [Compound 224] | 202
CC(C)n1nccc1C(=O)N[C@H](C(=O)Nc1ccc2c(c1)OC1(CCC(F)(F)CC1)CC2C(=O)N1CC(F)(F)C1)C1CCCCCC1 (some centres unmarked) [Compound 225] | 44.9
CC(C)C1CC(C(=O)N2CC(F)(F)C2)c2cc(F)c(NC(=O)[C@@H](NC(=O)c3ccnn3C(C)C)C3CCCCCC3)cc2O1 (some centres unmarked) [Compound 230] | 242
CC(C)n1nccc1C(=O)N[C@H](C(=O)Nc1ccc2c(c1)OC(C1CC(F)(F)C1)CC2C(=O)N1CC(C(F)(F)F)C1)C1CCCCCC1 (some centres unmarked) [Compound 231] | 116
CC(C)n1nccc1C(=O)N[C@H](C(=O)Nc1ccc2c(c1)OC(C1CC(F)(F)C1)CC2C(=O)N1CC(C(F)F)C1)C1CCCCCC1 (some centres unmarked) [Compound 232] | 77.1
CC1CN(C(=O)N2CC(F)(F)C2)c2ccc(NC(=O)[C@@H](NC(=O)c3ccnn3C(C)C)C3CCCCCC3)cc2O1 (some centres unmarked) [Compound 235] | 71.9
CC(C)n1nccc1C(=O)N[C@H](C(=O)Nc1cc2c(cc1F)C(C(=O)N1CC(F)(F)C1)CC1(CCOCC1)O2)C1CCCCCC1 (some centres unmarked) [Compound 236] | 14.9
CC(C)n1nccc1C(=O)N[C@H](C(=O)Nc1cc2c(cc1F)C(C(=O)N1CC(F)(F)C1)CC1(CCOCC1)O2)C(C1CC1)C1CC1 (some centres unmarked) [Compound 237] | 26.1
CC(C)n1nccc1C(=O)N[C@H](C(=O)Nc1ccc2c(c1)OC1(CCOCC1)CC2C(=O)N1CC(F)(F)C1)[C@H]1CC[C@H](C)CC1 (some centres unmarked) [Compound 239] | 31.1
CC(C)n1nccc1C(=O)N[C@H](C(=O)Nc1ccc2c(c1)O[C@@H](C1CC(F)(F)C1)C[C@H]2C(=O)N1CC(F)(F)C1)C1CCC(F)(F)CC1 [Compound 240] | 48.3
CC(C)n1nccc1C(=O)N[C@H](C(=O)Nc1ccc2c(c1)O[C@@H](C1CC(F)(F)C1)C[C@H]2C(=O)N1CC(F)(F)C1)[C@H]1CC[C@H](C)CC1 [Compound 241] | 15.9
CC(C)n1nccc1C(=O)N[C@H](C(=O)Nc1ccc2c(c1)OC1(CCC(F)(F)CC1)CC2C(=O)N1CC(F)(F)C1)C(C1CC1)C1CC1 (some centres unmarked) [Compound 243] | 122
CC(C)n1nccc1C(=O)N[C@H](C(=O)Nc1cc2c(cc1F)C(C(=O)N1CC(F)(F)C1)CC1(CCOCC1)O2)[C@H]1CC[C@H](C)CC1 (some centres unmarked) [Compound 244] | 13.5
CC(C)n1nccc1C(=O)N[C@H](C(=O)Nc1cc2c(cc1F)[C@H](C(=O)N1CC(F)(F)C1)C[C@H](C1CC(F)(F)C1)O2)C(C1CC1)C1CC1 [Compound 245] | 22
CC(C)n1nccc1C(=O)N[C@H](C(=O)Nc1ccc2c(c1)OC1(CCOCC1)CN2C(=O)N1CC(F)(F)C1)C(C1CC1)C1CC1 [Compound 246] | 18.2
CC(C)C1CN(C(=O)N2CC(F)(F)C2)c2ccc(NC(=O)[C@@H](NC(=O)c3ccnn3C(C)C)C(C3CC3)C3CC3)cc2O1 (some centres unmarked) [Compound 247] | 30.4
CC(C)n1nccc1C(=O)N[C@H](C(=O)Nc1cc2c(cc1F)[C@H](C(=O)N1CC(F)(F)C1)C[C@H](C1CC(F)(F)C1)O2)[C@H]1CC[C@H](C)CC1 [Compound 248] | 24.4
CC(C)n1nccc1C(=O)N[C@H](C(=O)Nc1cc2c(cc1F)[C@H](C(=O)N1CC(F)(F)C1)C[C@H](C1CC(F)(F)C1)O2)C1CCC(F)(F)CC1 [Compound 249] | 99.3
